From the NIST ThermoML archive (doi:10.1016/j.jct.2009.08.012)
Several values for one entry are separate records, joined by “and”; a condition that tells them apart may be missing. Equal values may be shown once. Numbers after ± are expanded uncertainties.

Experiment: activity coefficient (dimensionless); of the first substance listed, at infinite dilution; xn = mol fraction of the nth substance listed
Details: Liquid, Chromatography, x1 = 0

In the case of `C=CCCCCCCCC` [1-decene] + CCCCCCCC[N+](C)(CCCCCCCC)CCCCCCCC.O=S(=O)([N-]S(=O)(=O)C(F)(F)F)C(F)(F)F, the activity coefficient (303.15 K) is reported as 2.26 and 2.22, the activity coefficient (313.15 K) is reported as 2.13 and 2.11 and the activity coefficient (323.15 K) is reported as 2.07 and 2.05.
With `C#CCCCCCCCC` [1-decyne] + CCCCCCCC[N+](C)(CCCCCCCC)CCCCCCCC.O=S(=O)([N-]S(=O)(=O)C(F)(F)F)C(F)(F)F the activity coefficient (303.15 K) was 1.3 ± 0.04, the activity coefficient (313.15 K) was 1.33 and 1.31 and the activity coefficient (323.15 K) was 1.32 and 1.34.
With `C=CCCCCC` [1-heptene] + CCCCCCCC[N+](C)(CCCCCCCC)CCCCCCCC.O=S(=O)([N-]S(=O)(=O)C(F)(F)F)C(F)(F)F the activity coefficient (303.15 K) was 1.46 and 1.44, the activity coefficient (313.15 K) was 1.45 and 1.43 and the activity coefficient (323.15 K) was 1.44 and 1.42.
For `C#CCCCCC` [1-heptyne] + CCCCCCCC[N+](C)(CCCCCCCC)CCCCCCCC.O=S(=O)([N-]S(=O)(=O)C(F)(F)F)C(F)(F)F, the activity coefficient (303.15 K) was 0.89 ± 0.1, the activity coefficient (313.15 K) was 0.89 and 0.91 and the activity coefficient (323.15 K) was 0.9 and 0.92.
For `C#CCCCC` [1-hexyne] + CCCCCCCC[N+](C)(CCCCCCCC)CCCCCCCC.O=S(=O)([N-]S(=O)(=O)C(F)(F)F)C(F)(F)F, the activity coefficient (303.15 K) was 0.59 ± 0.03, the activity coefficient (313.15 K) was 0.59 ± 0.03 and the activity coefficient (323.15 K) was 0.6 and 0.62.
With `C=CCCCCCCC` [1-nonene] + CCCCCCCC[N+](C)(CCCCCCCC)CCCCCCCC.O=S(=O)([N-]S(=O)(=O)C(F)(F)F)C(F)(F)F the activity coefficient (303.15 K) was 1.99 ± 0.09, the activity coefficient (313.15 K) was 1.87 and 1.91 and the activity coefficient (323.15 K) was 1.81 and 1.85.
With `C#CCCCCCCC` [1-nonyne] + CCCCCCCC[N+](C)(CCCCCCCC)CCCCCCCC.O=S(=O)([N-]S(=O)(=O)C(F)(F)F)C(F)(F)F the activity coefficient (303.15 K) was 1.15 ± 0.04, the activity coefficient (313.15 K) was 1.15 and 1.17 and the activity coefficient (323.15 K) was 1.18 ± 0.04.
With `C#CCCCCCC` [1-octyne] + CCCCCCCC[N+](C)(CCCCCCCC)CCCCCCCC.O=S(=O)([N-]S(=O)(=O)C(F)(F)F)C(F)(F)F the activity coefficient (303.15 K) was 1.07 and 1.05, the activity coefficient (313.15 K) was 1.08 and 1.06 and the activity coefficient (323.15 K) was 1.1 and 1.08.
For `C=CCCC` [1-pentene] + CCCCCCCC[N+](C)(CCCCCCCC)CCCCCCCC.O=S(=O)([N-]S(=O)(=O)C(F)(F)F)C(F)(F)F, the activity coefficient (303.15 K) was 0.78 ± 0.03, the activity coefficient (313.15 K) was 0.76 and 0.74 and the activity coefficient (323.15 K) was 0.76 and 0.78.
In the case of `C#CCCC` [1-pentyne] + CCCCCCCC[N+](C)(CCCCCCCC)CCCCCCCC.O=S(=O)([N-]S(=O)(=O)C(F)(F)F)C(F)(F)F, the activity coefficient (303.15 K) is reported as 0.53 and 0.52, the activity coefficient (313.15 K) is reported as 0.52 and 0.53 and the activity coefficient (323.15 K) is reported as 0.54 and 0.55.
In the case of `CC(C)=O` [acetone] + CCCCCCCC[N+](C)(CCCCCCCC)CCCCCCCC.O=S(=O)([N-]S(=O)(=O)C(F)(F)F)C(F)(F)F, the activity coefficient (303.15 K) is reported as 0.35 ± 0.04, the activity coefficient (313.15 K) is reported as 0.4 and 0.38 and the activity coefficient (323.15 K) is reported as 0.42 and 0.44.
In the case of `c1ccccc1` [benzene] + CCCCCCCC[N+](C)(CCCCCCCC)CCCCCCCC.O=S(=O)([N-]S(=O)(=O)C(F)(F)F)C(F)(F)F, the activity coefficient (303.15 K) is reported as 0.32 and 0.31, the activity coefficient (313.15 K) is reported as 0.31 ± 0.04 and the activity coefficient (323.15 K) is reported as 0.31 and 0.32.
With `CCC(C)=O` [butanone] + CCCCCCCC[N+](C)(CCCCCCCC)CCCCCCCC.O=S(=O)([N-]S(=O)(=O)C(F)(F)F)C(F)(F)F the activity coefficient (303.15 K) was 0.32 and 0.34, the activity coefficient (313.15 K) was 0.31 and 0.33 and the activity coefficient (323.15 K) was 0.29 and 0.31.
For `C1CCCCCC1` [cycloheptane] + CCCCCCCC[N+](C)(CCCCCCCC)CCCCCCCC.O=S(=O)([N-]S(=O)(=O)C(F)(F)F)C(F)(F)F, the activity coefficient (303.15 K) was 0.95 and 0.94, the activity coefficient (313.15 K) was 0.9 and 0.91 and the activity coefficient (323.15 K) was 0.89 and 0.88.
For `C1CCCCC1` [cyclohexane] + CCCCCCCC[N+](C)(CCCCCCCC)CCCCCCCC.O=S(=O)([N-]S(=O)(=O)C(F)(F)F)C(F)(F)F, the activity coefficient (303.15 K) was 0.84 ± 0.03, the activity coefficient (313.15 K) was 0.8 and 0.81 and the activity coefficient (323.15 K) was 0.8 and 0.79.
For `C1CCCCCCCC1` [cyclononane] + CCCCCCCC[N+](C)(CCCCCCCC)CCCCCCCC.O=S(=O)([N-]S(=O)(=O)C(F)(F)F)C(F)(F)F, the activity coefficient (303.15 K) was 1.76 and 1.74, the activity coefficient (313.15 K) was 1.68 ± 0.07 and the activity coefficient (323.15 K) was 1.63 and 1.61.
With `C1CCCCCCC1` [cyclooctane] + CCCCCCCC[N+](C)(CCCCCCCC)CCCCCCCC.O=S(=O)([N-]S(=O)(=O)C(F)(F)F)C(F)(F)F the activity coefficient (303.15 K) was 1.08 and 1.07, the activity coefficient (313.15 K) was 1.01 and 1.03 and the activity coefficient (323.15 K) was 0.99 and 1.03.
In the case of `C1CCCC1` [cyclopentane] + CCCCCCCC[N+](C)(CCCCCCCC)CCCCCCCC.O=S(=O)([N-]S(=O)(=O)C(F)(F)F)C(F)(F)F, the activity coefficient (303.15 K) is reported as 0.71 ± 0.03, the activity coefficient (313.15 K) is reported as 0.69 and 0.7 and the activity coefficient (323.15 K) is reported as 0.7 and 0.69.
For `CCCCCCCCCC` [decane] + CCCCCCCC[N+](C)(CCCCCCCC)CCCCCCCC.O=S(=O)([N-]S(=O)(=O)C(F)(F)F)C(F)(F)F, the activity coefficient (303.15 K) was 3.2 and 3, the activity coefficient (313.15 K) was 2.74 and 2.72 and the activity coefficient (323.15 K) was 2.5 ± 0.11.
In the case of `CCO` [ethanol] + CCCCCCCC[N+](C)(CCCCCCCC)CCCCCCCC.O=S(=O)([N-]S(=O)(=O)C(F)(F)F)C(F)(F)F, the activity coefficient (303.15 K) is reported as 0.94 and 0.95, the activity coefficient (313.15 K) is reported as 0.85 and 0.87 and the activity coefficient (323.15 K) is reported as 0.8 and 0.83.
With `CCCCCCC` [heptane] + CCCCCCCC[N+](C)(CCCCCCCC)CCCCCCCC.O=S(=O)([N-]S(=O)(=O)C(F)(F)F)C(F)(F)F the activity coefficient (303.15 K) was 1.3 and 1.31, the activity coefficient (313.15 K) was 1.26 and 1.28 and the activity coefficient (323.15 K) was 1.25 ± 0.04.
In the case of `C=CCCCC` [hex-1-ene] + CCCCCCCC[N+](C)(CCCCCCCC)CCCCCCCC.O=S(=O)([N-]S(=O)(=O)C(F)(F)F)C(F)(F)F, the activity coefficient (303.15 K) is reported as 0.89 and 0.88, the activity coefficient (313.15 K) is reported as 0.85 ± 0.03 and the activity coefficient (323.15 K) is reported as 0.88 and 0.87.
For `CCCCCC` [hexane] + CCCCCCCC[N+](C)(CCCCCCCC)CCCCCCCC.O=S(=O)([N-]S(=O)(=O)C(F)(F)F)C(F)(F)F, the activity coefficient (303.15 K) was 1.13 ± 0.03, the activity coefficient (313.15 K) was 1.11 and 1.12 and the activity coefficient (323.15 K) was 1.11 and 1.1.
For `CO` [methanol] + CCCCCCCC[N+](C)(CCCCCCCC)CCCCCCCC.O=S(=O)([N-]S(=O)(=O)C(F)(F)F)C(F)(F)F, the activity coefficient (303.15 K) was 0.88 and 0.89, the activity coefficient (313.15 K) was 0.81 and 0.82 and the activity coefficient (323.15 K) was 0.79 and 0.81.
For `CCCCCCCCC` [nonane] + CCCCCCCC[N+](C)(CCCCCCCC)CCCCCCCC.O=S(=O)([N-]S(=O)(=O)C(F)(F)F)C(F)(F)F, the activity coefficient (303.15 K) was 2.57 and 2.59, the activity coefficient (313.15 K) was 2.39 ± 0.11 and the activity coefficient (323.15 K) was 2.21 ± 0.1.
With `C=CCCCCCC` [oct-1-ene] + CCCCCCCC[N+](C)(CCCCCCCC)CCCCCCCC.O=S(=O)([N-]S(=O)(=O)C(F)(F)F)C(F)(F)F the activity coefficient (303.15 K) was 1.69 ± 0.07, the activity coefficient (313.15 K) was 1.65 and 1.67 and the activity coefficient (323.15 K) was 1.64 and 1.66.
With `CCCCCCCC` [octane] + CCCCCCCC[N+](C)(CCCCCCCC)CCCCCCCC.O=S(=O)([N-]S(=O)(=O)C(F)(F)F)C(F)(F)F the activity coefficient (303.15 K) was 1.52 and 1.54, the activity coefficient (313.15 K) was 1.46 and 1.49 and the activity coefficient (323.15 K) was 1.44 and 1.43.
In the case of `CCCCC` [pentane] + CCCCCCCC[N+](C)(CCCCCCCC)CCCCCCCC.O=S(=O)([N-]S(=O)(=O)C(F)(F)F)C(F)(F)F, the activity coefficient (303.15 K) is reported as 1.01 and 1, the activity coefficient (313.15 K) is reported as 0.99 ± 0.11 and the activity coefficient (323.15 K) is reported as 1 and 0.98.
With `CCCO` [propan-1-ol] + CCCCCCCC[N+](C)(CCCCCCCC)CCCCCCCC.O=S(=O)([N-]S(=O)(=O)C(F)(F)F)C(F)(F)F the activity coefficient (303.15 K) was 1.37 and 1.35, the activity coefficient (313.15 K) was 1.24 and 1.22 and the activity coefficient (323.15 K) was 1.13 and 1.15.
In the case of `Cc1ccccc1` [toluene] + CCCCCCCC[N+](C)(CCCCCCCC)CCCCCCCC.O=S(=O)([N-]S(=O)(=O)C(F)(F)F)C(F)(F)F, the activity coefficient (303.15 K) is reported as 0.51 ± 0.03, the activity coefficient (313.15 K) is reported as 0.52 ± 0.03 and the activity coefficient (323.15 K) is reported as 0.55 and 0.53.
